Where “and” joins values, the source holds several entries; their conditions need not be identical. Equal entries are not always repeated. Toxic doses and inconclusive results are not listed. How the source made its calls: active means survival T/C of 150% or more; inactive means T/C below 125% in these data.
System: P388 leukemia ip, CD2F1 mice, survival T/C
Experiment: NCI In Vivo Anticancer Drug Screen. Data for tumor model P388 Leukemia (intraperitoneal) in CD2F1 (CDF1) mice
Conditions: endpoint: median survival time, higher = longer survival
In short: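 Mice carrying the transplanted tumor received test compound or vehicle. Survival was recorded in each group, and the value is the treated-group measurement divided by that of the vehicle-treated control group.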

[1] = dose: 60.0 mg/kg/injection, schedule: Q01DX005 (ip), vehicle: saline
[2] = dose: 120.0 mg/kg/injection, schedule: Q01DX005 (ip), vehicle: saline
[3] = dose: 240.0 mg/kg/injection, schedule: Q01DX005 (ip), vehicle: saline
[4] = dose: 50.0 mg/kg/injection, schedule: Q04DX002 (ip), vehicle: saline with Tween-80
[5] = dose: 100.0 mg/kg/injection, schedule: Q04DX002 (ip), vehicle: saline with Tween-80
[6] = dose: 200.0 mg/kg/injection, schedule: Q04DX002 (ip), vehicle: saline with Tween-80
[7] = dose: 12.5 mg/kg/injection, schedule: Q01DX005 (ip), vehicle: Klucel (hydroxypropylcellulose) (HPC)
[8] = dose: 25.0 mg/kg/injection, schedule: Q01DX005 (ip), vehicle: Klucel (hydroxypropylcellulose) (HPC)
[9] = dose: 50.0 mg/kg/injection, schedule: Q01DX005 (ip), vehicle: Klucel (hydroxypropylcellulose) (HPC)
[10] = dose: 50.0 mg/kg/injection, schedule: Q01DX009 (ip), vehicle: Klucel (hydroxypropylcellulose) (HPC)
[11] = dose: 200.0 mg/kg/injection, schedule: Q01DX009 (ip), vehicle: Klucel (hydroxypropylcellulose) (HPC)
[12] = dose: 100.0 mg/kg/injection, schedule: Q01DX005 (ip), vehicle: Klucel (hydroxypropylcellulose) (HPC)
[13] = dose: 100.0 mg/kg/injection, schedule: Q01DX009 (ip), vehicle: Klucel (hydroxypropylcellulose) (HPC)
[14] = dose: 50.0 mg/kg/injection, schedule: Q01DX009 (ip), vehicle: saline
[15] = dose: 100.0 mg/kg/injection, schedule: Q01DX009 (ip), vehicle: saline
[16] = dose: 200.0 mg/kg/injection, schedule: Q01DX009 (ip), vehicle: saline

Measured: T/C

C=CC(C)CC(N)C(=O)O (stereo not drawn)
inactive: [1] 123 % of control | [2] 105 % of control | [3] 104 % of control

Nc1cccc2c1C(=O)c1nc3ccccc3nc1C2=O
inactive: dose: 100.0 mg/kg/injection, schedule: Q01DX001 (ip), vehicle: Klucel + Tween-80 98 % of control | dose: 200.0 mg/kg/injection, schedule: Q01DX001 (ip), vehicle: Klucel + Tween-80 94 % of control | dose: 400.0 mg/kg/injection, schedule: Q01DX001 (ip), vehicle: Klucel + Tween-80 94 % of control

COc1cccc(/C=C2/C(=O)N(c3ccc([N+](=O)[O-])cc3)N=C2C)c1
inactive: dose: 30.0 mg/kg/injection, schedule: Q01DX005 (ip), vehicle: Klucel (hydroxypropylcellulose) (HPC) 97 % of control | dose: 60.0 mg/kg/injection, schedule: Q01DX005 (ip), vehicle: Klucel (hydroxypropylcellulose) (HPC) 88 % of control | dose: 120.0 mg/kg/injection, schedule: Q01DX005 (ip), vehicle: Klucel (hydroxypropylcellulose) (HPC) 98 % of control | dose: 240.0 mg/kg/injection, schedule: Q01DX005 (ip), vehicle: Klucel (hydroxypropylcellulose) (HPC) 93 % of control

CN1CCC(/C(=N/O)c2ccccc2)(c2ccccc2)CC1
inactive: dose: 50.0 mg/kg/injection, schedule: Q01DX005 (ip), vehicle: Klucel + Tween-80 98 % of control | dose: 100.0 mg/kg/injection, schedule: Q01DX005 (ip), vehicle: Klucel + Tween-80 91 % of control | dose: 200.0 mg/kg/injection, schedule: Q01DX005 (ip), vehicle: Klucel + Tween-80 91 % of control

CS(=O)(=O)N1C2CC3CCCCC3CC21 (stereo not drawn)
inactive: dose: 25.0 mg/kg/injection, schedule: Q04DX002 (ip), vehicle: saline with Tween-80 99 % of control | [4] 99 % of control | [5] 105 % of control and 110 % of control | [6] 112 % of control | dose: 400.0 mg/kg/injection, schedule: Q04DX002 (ip), vehicle: saline with Tween-80 112 % of control

O=S(=O)(c1cccc(N=C=S)c1)c1cccc(N=C=S)c1
inactive: dose: 6.25 mg/kg/injection, schedule: Q01DX005 (ip), vehicle: Klucel (hydroxypropylcellulose) (HPC) 123 % of control | [7] 117 % of control and 123 % of control | [8] 123 % of control | [9] 103 % of control

CCOc1ccccc1/C=N\NC(=O)C(=O)N/N=C\c1ccccc1OCC
inactive: dose: 1.56 mg/kg/injection, schedule: Q01DX009 (ip), vehicle: Klucel (hydroxypropylcellulose) (HPC) 98 % of control | dose: 3.12 mg/kg/injection, schedule: Q01DX009 (ip), vehicle: Klucel (hydroxypropylcellulose) (HPC) 94 % of control | dose: 6.25 mg/kg/injection, schedule: Q01DX009 (ip), vehicle: Klucel (hydroxypropylcellulose) (HPC) 86 % of control and 91 % of control | [10] 90 % of control | [11] 97 % of control

CC(=O)C1=CC[C@H]2[C@@H]3C=CC4=CC(=O)CC[C@]4(C)[C@H]3C[C@@H](O)[C@]12C
inactive: [7] 99 % of control | [8] 96 % of control | [9] 107 % of control | [12] 99 % of control | dose: 200.0 mg/kg/injection, schedule: Q01DX005 (ip), vehicle: Klucel (hydroxypropylcellulose) (HPC) 106 % of control

O=C(O)C(Cc1ccccc1)NP(=S)(c1ccccc1)c1ccccc1 (stereo not drawn)
inactive: [10] 110 % of control | [13] 97 % of control | [11] 106 % of control

[Cu].c1ccc2c3[n-]c(c2c1)/N=c1\[n-]/c(c2ccccc12)=N\c1[n-]c(c2ccccc12)/N=c1\[n-]/c(c2ccccc12)=N\3
inactive: [14] 104 % of control | [15] 93 % of control

CC(=O)CCC1C=CC(=O)O1 (stereo not drawn)
inactive: [1] 112 % of control | [2] 103 % of control | [3] 111 % of control

CC1=C(C)C(=Nc2ccc(N(CCCl)CCCl)cc2)C=CC1=O
inactive: dose: 50.0 mg/kg/injection, schedule: Q01DX001 (ip), vehicle: Klucel (hydroxypropylcellulose) (HPC) 97 % of control | dose: 100.0 mg/kg/injection, schedule: Q01DX001 (ip), vehicle: Klucel (hydroxypropylcellulose) (HPC) 100 % of control | dose: 200.0 mg/kg/injection, schedule: Q01DX001 (ip), vehicle: Klucel (hydroxypropylcellulose) (HPC) 114 % of control

c1ccc2c(c1)/C(=N/c1nccs1)N/C2=N\c1nccs1
inactive: dose: 100.0 mg/kg/injection, schedule: Q04DX003 (ip), vehicle: saline with Tween-80 97 % of control | dose: 200.0 mg/kg/injection, schedule: Q04DX003 (ip), vehicle: saline with Tween-80 93 % of control | dose: 400.0 mg/kg/injection, schedule: Q04DX003 (ip), vehicle: saline with Tween-80 91 % of control

CO/C=C1\SC(=S)N(c2ccc(NC(C)=O)cc2)C1=O
inactive: dose: 50.0 mg/kg/injection, schedule: Q01DX009 (ip), vehicle: saline with Tween-80 93 % of control | dose: 100.0 mg/kg/injection, schedule: Q01DX009 (ip), vehicle: saline with Tween-80 92 % of control | dose: 200.0 mg/kg/injection, schedule: Q01DX009 (ip), vehicle: saline with Tween-80 96 % of control

C=C1C[C@]23C[C@H](O)[C@]4(O)[C@@]5(C)C[C@H](O)C[C@]46C(C2[C@@H]1[C@@H](OC(=O)/C(C)=C/C)[C@@H](OC(=O)/C(C)=C/C)[C@H]36)N(C)C5 (stereo partly drawn)
inactive: dose: 0.5 mg/kg/injection, schedule: Q01DX005 (ip), vehicle: saline + alcohol 102 % of control | dose: 1.0 mg/kg/injection, schedule: Q01DX005 (ip), vehicle: saline + alcohol 105 % of control and 106 % of control | dose: 2.0 mg/kg/injection, schedule: Q01DX005 (ip), vehicle: saline + alcohol 105 % of control and 109 % of control | dose: 4.0 mg/kg/injection, schedule: Q01DX005 (ip), vehicle: saline + alcohol 103 % of control and 109 % of control | dose: 8.0 mg/kg/injection, schedule: Q01DX005 (ip), vehicle: saline + alcohol 103 % of control

[Cu+2].[O-]/C(=N\N=C\c1ccccn1)c1ccc(Cl)cc1.[O-]/C(=N\N=C\c1ccccn1)c1ccc(Cl)cc1
inactive: [4] 90 % of control | [5] 93 % of control | [6] 90 % of control

CC(C)(C)COC(=O)NC1CCC2CCCCC2C1 (stereo not drawn)
inactive: [14] 88 % of control | [15] 97 % of control | [16] 101 % of control

CCC1(c2ccccc2)N=C1N(C)C (stereo not drawn)
inactive: dose: 6.25 mg/kg/injection, schedule: Q01DX009 (ip), vehicle: saline 106 % of control and 92 % of control | dose: 12.5 mg/kg/injection, schedule: Q01DX009 (ip), vehicle: saline 109 % of control and 120 % of control | dose: 25.0 mg/kg/injection, schedule: Q01DX009 (ip), vehicle: saline 116 % of control and 118 % of control | [16] 93 % of control

Cn1c(CO)cnc1-c1ccccc1
inactive: [10] 99 % of control | [13] 100 % of control | [11] 97 % of control

O=C(OCCN1CCN(CCOC(=O)C(Cl)(c2ccccc2)c2ccccc2)CC1)C(Cl)(c1ccccc1)c1ccccc1
inactive: dose: 6.25 mg/kg/injection, schedule: Q01DX005 (ip), vehicle: saline with Tween-80 95 % of control | dose: 12.5 mg/kg/injection, schedule: Q01DX005 (ip), vehicle: saline with Tween-80 93 % of control | dose: 25.0 mg/kg/injection, schedule: Q01DX005 (ip), vehicle: saline with Tween-80 95 % of control | dose: 100.0 mg/kg/injection, schedule: Q01DX005 (ip), vehicle: saline with Tween-80 90 % of control

O=[N+]([O-])c1cccc(C2OCC3(CO2)COC(c2cccc([N+](=O)[O-])c2)OC3)c1 (stereo not drawn)
inactive: [14] 100 % of control | [15] 100 % of control | [16] 101 % of control

CCOC(=O)/C(=C(/C)N=Cc1ccccc1[N+](=O)[O-])C(NN=O)c1ccccc1[N+](=O)[O-] (stereo not drawn)
inactive: [8] 97 % of control | [9] 93 % of control | [12] 88 % of control and 90 % of control

O=C(C(=O)c1ccc(C(=O)C(=O)c2ccccc2)cc1)c1ccccc1
inactive: dose: 60.0 mg/kg/injection, schedule: Q01DX005 (ip), vehicle: saline with Tween-80 104 % of control | dose: 120.0 mg/kg/injection, schedule: Q01DX005 (ip), vehicle: saline with Tween-80 93 % of control | dose: 240.0 mg/kg/injection, schedule: Q01DX005 (ip), vehicle: saline with Tween-80 96 % of control

CCOc1ccc(N=Nc2ccc(N)cc2N)cc1
inactive: [13] 118 % of control | [11] 100 % of control | dose: 400.0 mg/kg/injection, schedule: Q01DX009 (ip), vehicle: Klucel (hydroxypropylcellulose) (HPC) 93 % of control

Reference: PubChem BioAssay AID330 (DTP/NCI, 2004)
